The structures appear in SMILES notation. Counter-ions that a name gives are not always drawn. Activity calls are given as the source filed them. No cut-off for these calls is given here.

Holding throughout (type): functional, cell-based
Experiment [1] relates to HL-60. Put plainly: Cytotoxicity against Homo sapiens (human) HL60 cells assessed as reduction in cell survival fraction after 48 hr by MTT assay. The following applies: HL-60, 48 h.
The next experiment relates to NALM-6. Put plainly: Cytotoxicity against Homo sapiens (human) NALM6 cells assessed as reduction in cell survival fraction after 48 hr by MTT assay. The following applies: NALM-6, 48 h. In general terms: Tetrazolium assays rely on reduction of a dye to a coloured formazan, in cell work by metabolically active cells.
In experiment [2] the test system is HL-60. The experiment can be described thus: Induction of apoptosis in Homo sapiens (human) HL60 cells assessed as increase in cytosolic cytochrome c level at 0.2 times IC50 after 0.5 hr by ELISA.
Experiment [3] has as its system HL-60. Put plainly: Induction of apoptosis in Homo sapiens (human) HL60 cells assessed as increase in cytosolic cytochrome c level after 0.5 to 4 hr by ELISA. A general note: An ELISA detects its analyte on a solid surface through an enzyme-linked reagent.
Experiment [4] in a line: Cytotoxicity against Homo sapiens (human) HL60/ADR cells assessed as reduction in cell survival fraction after 48 hr by MTT assay.
In experiment [5] the test system is HL-60. The experiment can be described thus: Induction of apoptosis in Homo sapiens (human) HL60 cells assessed as increase in cytosolic cytochrome c level at 0.2 to 5 times IC50 by ELISA. The following applies: TDE = time-dependent effect.
Experiment [6] relates to HL-60. Put plainly: Induction of apoptosis in Homo sapiens (human) HL60 cells assessed as increase in cytosolic cytochrome c level at IC50 after 0.5 hr by ELISA.
In experiment [7] the test system is HL-60. The experiment can be described thus: Induction of apoptosis in Homo sapiens (human) HL60 cells assessed as increase in cytosolic cytochrome c level at 5 times IC50 after 0.5 hr by ELISA.

On to `COC(=O)N/N=C/c1c(N)oc2ccccc2c1=O`, for which the 50% inhibitory concentration (IC50) in the experiment with HL-60 [1] was 463 µM; in the experiment with NALM-6, 407 µM.

In the case of `COc1cccc2c1C(=O)c1c(O)c3c(c(O)c1C2=O)C[C@@](O)(C(=O)CO)C[C@@H]3O[C@H]1C[C@H](N)[C@H](O)[C@H](C)O1` [DOXORUBICIN HYDROCHLORIDE], in the experiment on HL-60 [1], the concentration for half-maximal inhibition (IC50) worked out at 0.04 µM.

Regarding `CC(=O)CC(c1ccccc1)c1c(O)c2ccccc2oc1=O` (stereo not given) [WARFARIN], the half-inhibitory concentration (IC50) in the experiment on HL-60 [1] turned out to be 486 µM; in the experiment with NALM-6, 74.8 µM.

Consider `COP(=S)(OC)N(C)/N=C/c1coc2ccccc2c1=O`, for which the half-inhibitory concentration (IC50) with HL-60 [1] stood at 34.4 µM; in experiment [4], 30.6 µM; in the experiment with NALM-6, 28.8 µM. Moreover, the outcome in the experiment with HL-60 [2], in the experiment with HL-60 [6] and in the experiment with HL-60 [7] was Active. Besides, the results for the Activity result with HL-60 [3] and in the experiment on HL-60 [5] were “Dose-dependent effect” and “tde”, respectively.

`COC(=O)N/N=C/c1coc2ccccc2c1=O`: the IC50 in the experiment on HL-60 [1] came to 371 µM; with NALM-6 it was 309 µM.

On to `Nc1oc2ccccc2c(=O)c1/C=N/Nc1ccc(C(=O)O)cc1`, for which the IC50 in the experiment on HL-60 [1] worked out at 940 µM; with NALM-6, 628 µM.

`Cc1cc2oc(N)c(/C=N/NCCO)c(=O)c2cc1C`: the IC50 in the experiment on HL-60 [1] was 23.5 µM; in the experiment with NALM-6 it was 65.3 µM.

As to `COP(=S)(OC)N(C)/N=C/c1c(O)c2ccccc2oc1=O`, the IC50 in the experiment with HL-60 [1] worked out at 61.8 µM; in the experiment on NALM-6 it was 56.5 µM.

With `Nc1oc2ccccc2c(=O)c1/C=N/N=C(c1ccccc1)c1ccccc1`, the IC50 in the experiment on HL-60 [1] was found to be 56.2 µM; in experiment [4] it was 54.8 µM; in the experiment with NALM-6, 102 µM.

With `CCOP(=S)(OCC)N(C)/N=C/c1c(O)c2ccccc2oc1=O`, the half-inhibitory concentration (IC50) in the experiment on HL-60 [1] is 86.3 µM; with NALM-6, 66.5 µM.

On to `O=c1c(/C=N/Nc2cc(Cl)ccc2Cl)coc2ccccc12`, for which the half-maximal inhibitory concentration (IC50) in the experiment with HL-60 [1] was determined as 265 µM; in the experiment with NALM-6 it was 85.3 µM.

Turning to `Nc1oc2ccccc2c(=O)c1/C=N/NCCO`, the values for the 50% inhibitory concentration (IC50) in the experiment on HL-60 [1] and with NALM-6 were 48.5 µM and 42.1 µM, respectively.

With `Nc1oc2ccccc2c(=O)c1/C=N/Nc1cc(Cl)ccc1Cl`, the half-inhibitory concentration (IC50) in the experiment on HL-60 [1] was > 1000 µM; in the experiment with NALM-6 it was 500 µM.

In the case of `Nc1oc2ccc(Cl)cc2c(=O)c1/C=N/NCCO`, the IC50 came out at 6.6 µM in the experiment on HL-60 [1], 7.9 µM in experiment [4] and 28 µM with NALM-6. Besides, the outcome in the experiment with HL-60 [2], in the experiment with HL-60 [6] and in the experiment on HL-60 [7] was Active. Further, the figures for the Activity entry with HL-60 [3] and in the experiment on HL-60 [5] were “Dose-dependent effect” and “tde”, respectively.

As a reminder, the IC50 is the concentration at which inhibition is half-maximal.

The values above are taken from ChEMBL document CHEMBL3044544, “Synthesis, preliminary cytotoxicity evaluation of new 3-formylchromone hydrazones and phosphorohydrazone derivatives of coumarin and chromone” (Med Chem Res, 2012).
